Test results: US10414765B2, “Substituted perhydropyrrolo[3,4-c]pyrrole derivatives and the use of same” (BAYER PHARMA AKTIENGESELLSCHAFT, priority 2015, dated 2019)

Experiments:
human TASK-1 = human TASK-1 (Homo sapiens (Human), UniProt O14649); assay: Inhibition of recombinant TASK-1 in stably transfected CHO cells (voltage-sensitive dye, 40 mM KCl depolarization); type: cell-based; settings: 40 mM potassium chloride
Method: (§1) B-2. Inhibition of Recombinant TASK-1 and TASK-3 In Vitro
(§2) The investigations on the inhibition of the recombinant TASK-1 and TASK-3 channels were conducted using stably transfected CHO cells. The compounds according to the invention were tested in this case by application of 40 mM potassium chloride in the presence of a voltage-sensitive dye according to the methods described in detail in the following references [Whiteaker et al., Validation of FLIPR membrane potential dye for high-throughput screening of potassium channel modulators, J. Biomol. Screen. 6 (5), 305-312 (2001); Molecular Devices FLIPR Application Note: Measuring membrane potential using the FLIPR® membrane potential assay kit on Fluorometric Imaging Plate Reader (FLIPR®) systems, http://www.moleculardevices.com/reagents-supplies/assay-kits/ion-channels/flipr-membrane-potential-assay-kits]. The activity of the test substances was determined as their ability to inhibit a depolarization induced in the recombinant cells by 40 mM potassium chloride. The concentration which can block half of this depolarization is referred to as IC50.

human TASK-3 = human TASK-3 (Homo sapiens (Human), UniProt Q9NPC2); assay: Inhibition of recombinant TASK-3 in stably transfected CHO cells (voltage-sensitive dye, 40 mM KCl depolarization); type: cell-based; settings: 40 mM potassium chloride
Chain of human TASK-3 (Q9NPC2 whole entry): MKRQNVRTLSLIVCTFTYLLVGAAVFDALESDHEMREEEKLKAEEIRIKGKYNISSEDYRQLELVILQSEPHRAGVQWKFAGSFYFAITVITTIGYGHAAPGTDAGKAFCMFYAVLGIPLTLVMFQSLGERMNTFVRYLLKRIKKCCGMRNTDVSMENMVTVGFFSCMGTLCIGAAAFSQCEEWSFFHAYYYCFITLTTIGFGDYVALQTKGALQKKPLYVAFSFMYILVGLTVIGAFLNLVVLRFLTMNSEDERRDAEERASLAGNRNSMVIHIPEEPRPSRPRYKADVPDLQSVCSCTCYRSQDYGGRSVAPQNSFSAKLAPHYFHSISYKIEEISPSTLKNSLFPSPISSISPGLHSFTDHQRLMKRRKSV
Method: as §1, §2

Chain of human TASK-1 (O14649 whole entry): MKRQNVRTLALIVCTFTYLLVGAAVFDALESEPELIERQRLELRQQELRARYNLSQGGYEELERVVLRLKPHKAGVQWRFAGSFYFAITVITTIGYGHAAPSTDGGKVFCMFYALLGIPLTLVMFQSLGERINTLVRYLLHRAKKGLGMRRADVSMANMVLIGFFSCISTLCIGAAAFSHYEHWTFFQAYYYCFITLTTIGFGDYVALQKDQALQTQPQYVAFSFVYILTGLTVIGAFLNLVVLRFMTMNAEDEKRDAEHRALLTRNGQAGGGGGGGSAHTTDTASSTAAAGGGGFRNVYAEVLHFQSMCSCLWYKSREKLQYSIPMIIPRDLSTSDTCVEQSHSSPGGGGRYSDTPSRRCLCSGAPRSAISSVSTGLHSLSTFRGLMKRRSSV

In the case of `COc1ccc(F)cc1C(=O)N1CC2CN(Cc3c(-c4ccc(Br)cc4)nc4ccccn34)CC2C1` (stereo not shown) [Example 12], the IC50 (human TASK-1) is reported as 1.2 µM and the IC50 (human TASK-3) is reported as 0.96 µM.
For `COc1ccc(F)c(C(=O)N2CC3CN(Cc4c(-c5ccc(C(C)C)cc5)nc5ccccn45)CC3C2)n1` (stereo not shown) [Example 48], the IC50 (human TASK-1) was 0.078 µM and the IC50 (human TASK-3) was 0.079 µM.
`O=C(C1CCCCC1)N1CC2CN(Cc3c(-c4ccc(Br)cc4)nc4ccccn34)CC2C1` (stereo not shown) [Example 8] showed an IC50 (human TASK-1) of 1.36 µM and an IC50 (human TASK-3) of 0.81 µM.
With `CC(NC(=O)N1CC2CN(Cc3c(-c4ccc(Br)cc4)nc4ccccn34)CC2C1)c1ccccc1` (stereo not shown) [Example 46] the IC50 (human TASK-1) was 0.46 µM and the IC50 (human TASK-3) was 2.2 µM.
`COc1ccccc1C(=O)N1CC2CN(Cc3c(-c4ccc(Br)cc4)nc4ccccn34)CC2C1` (stereo not shown) [Example 11] was tested, and the IC50 (human TASK-1) was 1.21 µM and the IC50 (human TASK-3) was 2.5 µM.
`O=C(OCc1ccccc1)N1CC2CN(Cc3c(-c4ccc(Br)cc4)nc4ccccn34)CC2C1` (stereo not shown) [Example 33] gave an IC50 (human TASK-1) of 0.46 µM and an IC50 (human TASK-3) of 4.4 µM.
Work on `Cc1ccc(F)cc1C(=O)N1CC2CN(Cc3c(-c4ccc(Cl)cc4)nc4ccccn34)CC2C1` (stereo not shown) [Example 21] yielded an IC50 (human TASK-1) of 1.25 µM and an IC50 (human TASK-3) of 0.23 µM.
In the case of `O=C(Nc1ccc(F)cc1)N1CC2CN(Cc3c(-c4ccc(Br)cc4)nc4ccccn34)CC2C1` (stereo not shown) [Example 47], the IC50 (human TASK-1) is reported as 1 µM and the IC50 (human TASK-3) is reported as 0.24 µM.
`O=C(NC1CCCCC1)N1CC2CN(Cc3c(-c4ccc(Br)cc4)nc4ccccn34)CC2C1` (stereo not shown) [Example 45] gave an IC50 (human TASK-1) of 2.3 µM and an IC50 (human TASK-3) of 5.8 µM.
Work on `O=C(Oc1cccc(C(F)(F)F)c1)N1CC2CN(Cc3c(-c4ccc(Br)cc4)nc4ccccn34)CC2C1` (stereo not shown) [Example 36] yielded an IC50 (human TASK-1) of 0.18 µM and an IC50 (human TASK-3) of 0.45 µM.
With `Cc1ccccc1C(=O)N1CC2CN(Cc3c(-c4ccc(Cl)cc4)nc4ccccn34)CC2C1` (stereo not shown) [Example 20] the IC50 (human TASK-1) was 1.02 µM and the IC50 (human TASK-3) was 2.5 µM.
`O=C(c1cccc(OC(F)(F)F)c1)N1CC2CN(Cc3c(-c4ccc(Cl)cc4)nc4ccccn34)CC2C1` (stereo not shown) [Example 22] was tested, and the IC50 (human TASK-1) was 1.46 µM and the IC50 (human TASK-3) was 0.32 µM.
With `COc1ccc(F)cc1C(=O)N1CC2CN(Cc3c(-c4ccc(Cl)cc4)nc4ccccn34)CC2C1` (stereo not shown) [Example 19] the IC50 (human TASK-1) was 1.25 µM and the IC50 (human TASK-3) was 1.5 µM.
In the case of `O=C(Nc1ccccc1F)N1CC2CN(Cc3c(-c4ccc(Br)cc4)nc4ccccn34)CC2C1` (stereo not shown) [Example 41], the IC50 (human TASK-1) is reported as 0.58 µM and the IC50 (human TASK-3) is reported as 2.9 µM.
With `CC(C)c1ccc(-c2nc3ccccn3c2CN2CC3CN(C(=O)c4ccccc4F)CC3C2)cc1` (stereo not shown) [Example 26] the IC50 (human TASK-1) was 0.22 µM and the IC50 (human TASK-3) was 0.31 µM.
Work on `O=C(C1CCCCC1)N1CC2CN(Cc3c(-c4ccc(Cl)cc4)nc4ccccn34)CC2C1` (stereo not shown) [Example 16] yielded an IC50 (human TASK-1) of 1.94 µM and an IC50 (human TASK-3) of 1.1 µM.
`CC(C)OC(=O)N1CC2CN(Cc3c(-c4ccc(Br)cc4)nc4ccccn34)CC2C1` (stereo not shown) [Example 35] was tested, and the IC50 (human TASK-1) was 0.7 µM and the IC50 (human TASK-3) was 1.7 µM.
Compound `O=C(c1cc(F)ccc1Cl)N1CC2CN(Cc3c(-c4ccc(Br)cc4)nc4ccccn34)CC2C1` (stereo not shown) [Example 7] has an IC50 (human TASK-1) of 0.787 µM and an IC50 (human TASK-3) of 4.3 µM.
`O=C(Nc1ccc(F)cc1F)N1CC2CN(Cc3c(-c4ccc(Br)cc4)nc4ccccn34)CC2C1` (stereo not shown) [Example 38, 5-{[2-(4-Bromophenyl)imidazo[1,2-a]pyridin-3-yl]methyl}-N-(2,4-difluorophenyl)hexahydropyrrolo[3,4-c]pyrrole-2(1H)-carboxamide] was tested, and the IC50 (human TASK-1) was 1.5 µM and the IC50 (human TASK-3) was 1.9 µM.
`COc1ccc(C)c(C(=O)N2CC3CN(Cc4c(-c5ccc(Cl)cc5)nc5ccccn45)CC3C2)n1` (stereo not shown) [Example 49] gave an IC50 (human TASK-1) of 0.094 µM and an IC50 (human TASK-3) of 0.0046 µM.
Work on `Cc1ccccc1C(=O)N1CC2CN(Cc3c(-c4ccc(Br)cc4)nc4ccccn34)CC2C1` (stereo not shown) [Example 13] yielded an IC50 (human TASK-1) of 0.712 µM and an IC50 (human TASK-3) of 1.3 µM.
Work on `O=C(c1ccccc1)N1CC2CN(Cc3c(-c4ccc(Cl)cc4)nc4ccc(-c5ccccc5)cn34)CC2C1` (stereo not shown) [Example 160 in WO 2014/187922, reference compound] yielded an IC50 (human TASK-1) of 15 µM and an IC50 (human TASK-3) of 2.4 µM.
Work on `O=C(c1cccc(C(F)(F)F)c1)N1CC2CN(Cc3c(-c4ccc(Cl)cc4)nc4ccccn34)CC2C1` (stereo not shown) [Example 23] yielded an IC50 (human TASK-1) of 0.728 µM and an IC50 (human TASK-3) of 0.1 µM.
Work on `CC(C)(C)OC(=O)N1CC2CN(Cc3c(-c4ccc(Br)cc4)nc4ccccn34)CC2C1` (stereo not shown) [Example 2] yielded an IC50 (human TASK-1) of 1.73 µM and an IC50 (human TASK-3) of 5.4 µM.
`O=C(C1CCCC1)N1CC2CN(Cc3c(-c4ccc(Br)cc4)nc4ccccn34)CC2C1` (stereo not shown) [Example 5, [5-{[2-(4-Bromophenyl)imidazo[1,2-a]pyridin-3-yl]methyl}hexahydropyrrolo[3,4-c]pyrrol-2(1H)-yl](cyclopentyl)methanone] was tested, and the IC50 (human TASK-1) was 1.13 µM and the IC50 (human TASK-3) was 1.6 µM.
For `O=C(OC1CCCC1)N1CC2CN(Cc3c(-c4ccc(Br)cc4)nc4ccccn34)CC2C1` (stereo not shown) [Example 34], the IC50 (human TASK-1) was 0.5 µM and the IC50 (human TASK-3) was 3.3 µM.
`CC(C)c1ccc(-c2nc3ccccn3c2CN2CC3CN(C(=O)OC(C)(C)C)CC3C2)cc1` (stereo not shown) [Example 3] was tested, and the IC50 (human TASK-1) was 2.5 µM and the IC50 (human TASK-3) was 7.4 µM.
Work on `COc1cccc(C(=O)N2CC3CN(Cc4c(-c5ccc(Br)cc5)nc5ccccn45)CC3C2)n1` (stereo not shown) [Example 24] yielded an IC50 (human TASK-1) of 0.33 µM and an IC50 (human TASK-3) of 0.8 µM.
In the case of `CC(C)COC(=O)N1CC2CN(Cc3c(-c4ccc(Br)cc4)nc4ccccn34)CC2C1` (stereo not shown) [Example 32], the IC50 (human TASK-1) is reported as 1.1 µM and the IC50 (human TASK-3) is reported as 1.2 µM.
`O=C(c1ccccc1F)N1CC2CN(Cc3c(-c4ccc(Br)cc4)nc4ccccn34)CC2C1` (stereo not shown) [Example 6] was tested, and the IC50 (human TASK-1) was 0.683 µM and the IC50 (human TASK-3) was 1.3 µM.
With `O=C(c1cc(F)ccc1Cl)N1CC2CN(Cc3c(-c4ccc(Cl)cc4)nc4ccccn34)CC2C1` (stereo not shown) [Example 15] the IC50 (human TASK-1) was 1 µM and the IC50 (human TASK-3) was 2.9 µM.
For `O=C(Nc1ccc(Cl)c(C(F)(F)F)c1)N1CC2CN(Cc3c(-c4ccc(Br)cc4)nc4ccccn34)CC2C1` (stereo not shown) [Example 43], the IC50 (human TASK-1) was 1.7 µM and the IC50 (human TASK-3) was 2 µM.
In the case of `CC(C)(C)OC(=O)N1CC2CN(Cc3c(-c4ccc(Cl)cc4)nc4ccccn34)CC2C1` (stereo not shown) [Example 1, tert-butyl 5-{[2-(4-chlorophenyl)imidazo [1,2-a]pyridin-3-yl]methyl}hexahydropyrrolo[3,4-c]pyrrole-2(1H)-carboxylate], the IC50 (human TASK-1) is reported as 2.41 µM and the IC50 (human TASK-3) is reported as 6.1 µM.
`COc1ccc(F)c(C(=O)N2CC3CN(Cc4c(-c5ccc(Cl)cc5)nc5ccccn45)CC3C2)n1` (stereo not shown) [Example 50] was tested, and the IC50 (human TASK-1) was 1.1 µM and the IC50 (human TASK-3) was 0.11 µM.
With `COc1ccc(Cl)c(C(=O)N2CC3CN(Cc4c(-c5ccc(Cl)cc5)nc5ccccn45)CC3C2)n1` (stereo not shown) [Example 51] the IC50 (human TASK-1) was 1.4 µM and the IC50 (human TASK-3) was 0.08 µM.
`O=C(C1CCC1)N1CC2CN(Cc3c(-c4ccc(Br)cc4)nc4ccccn34)CC2C1` (stereo not shown) [Example 9] showed an IC50 (human TASK-1) of 0.749 µM and an IC50 (human TASK-3) of 0.66 µM.
`O=C(OCCF)N1CC2CN(Cc3c(-c4ccc(Br)cc4)nc4ccccn34)CC2C1` (stereo not shown) [Example 37] gave an IC50 (human TASK-1) of 0.6 µM and an IC50 (human TASK-3) of 1.8 µM.
`COc1cccc(C(=O)N2CC3CN(Cc4c(-c5ccc(C(C)C)cc5)nc5ccccn45)CC3C2)c1` (stereo not shown) [Example 27] showed an IC50 (human TASK-1) of 0.17 µM and an IC50 (human TASK-3) of 0.17 µM.
With `CN(C(=O)N1CC2CN(Cc3c(-c4ccc(Br)cc4)nc4ccccn34)CC2C1)c1ccccc1` (stereo not shown) [Example 29, 5-{[2-(4-Bromophenyl)imidazo[1,2-a]pyridin-3-yl]methyl}-N-methyl-N-phenylhexahydropyrrolo[3,4-c]pyrrole-2(1H)-carboxamide] the IC50 (human TASK-1) was 0.92 µM and the IC50 (human TASK-3) was 2.1 µM.
Compound `O=C(c1ccccc1F)N1CC2CN(Cc3c(-c4ccc(Cl)cc4)nc4ccccn34)CC2C1` (stereo not shown) [Example 14] has an IC50 (human TASK-1) of 1.06 µM and an IC50 (human TASK-3) of 3.4 µM.
`CC(C)c1ccc(-c2nc3ccccn3c2CN2CC3CN(C(=O)C4CCCC4)CC3C2)cc1` (stereo not shown) [Example 28] was tested, and the IC50 (human TASK-1) was 0.3 µM and the IC50 (human TASK-3) was 0.19 µM.
